Tests used:
MCF-7 = assay: Alamar blue cell proliferation assay, MCF-7; assay type: cell-based, human; conditions: MCF-7, 72 h; read-out: IC50 Assay B (Alamar blue cell proliferation)
Protocol: (§1) The effects of RgA on cell growth, survival, and cell death was then determined. […] Treatment with 5 μM of RgA caused an increase in G1 phase by approximately 23% in comparison to control and approximately 7% and 17% decreases in cells in S and G2/M phases, respectively. The induction in G1 phase cell cycle arrest by RgA is dose-dependent (FIG. 5A, FIG. 16). […] Jones and Thompson, Genes Dev. 2009, 23, 537-548. […] The IC50 values of RgA against several human cancer cell lines also was determined using the alamar blue cell proliferation assay.
(§2) Cells were seeded into a 96-well plate (Costar) in 180 μL culture media. After an overnight recovery, drugs were added and incubated for 72 h. After drug incubation, cells were added with 20 μL of alamar blue reagent and the plates were incubated at 37° C. for 6 h before reading the fluorescence (544 nm Ex/590 nm Em) with a plate reader. GraphPad Prism (v4.03) software was used to determine IC50 values using a four parameter logistic regression.

Jurkat T = assay: Alamar blue cell proliferation assay, Jurkat T; assay type: cell-based, human; conditions: 72 h, read-out: IC50 Assay B (Alamar blue cell proliferation)
Protocol: as §1, §2

FKBP12 = FKBP12 (Homo sapiens, UniProt P62942); assay: peptidyl prolyl cis-trans isomerase activity inhibition, FKBP12; assay type: biochemical; conditions: inhibition of prolyl isomerase activity
FKSP13 = FKSP13 (Homo sapiens, UniProt P26885); assay: peptidyl prolyl cis-trans isomerase activity inhibition, FKSP13; assay type: biochemical; conditions: inhibition of prolyl isomerase activity
FKBP51 = FKBP51 (Homo sapiens, UniProt Q13451); assay: peptidyl prolyl cis-trans isomerase activity inhibition, FKBP51; assay type: biochemical; conditions: inhibition of prolyl isomerase activity
GLUT1 = target: T1, GLUT1 (Homo sapiens, UniProt P11166); assay: biotin-RgA pull-down and biotin probe competition binding assay, GLUT1; conditions: competition with 100 nM biotin-RgA probe, HEK293T GLUT1 lysate, Western blot densitometry; read-out: estimated Kd for GLUT1
T1 construct: The full-length human SLC2A1, SLC2A3, and SLC2A4 genes were PCR amplified and inserted into pLenti6M vector 2; expressed in transfected cells
T1 sequence (P11166 1-492): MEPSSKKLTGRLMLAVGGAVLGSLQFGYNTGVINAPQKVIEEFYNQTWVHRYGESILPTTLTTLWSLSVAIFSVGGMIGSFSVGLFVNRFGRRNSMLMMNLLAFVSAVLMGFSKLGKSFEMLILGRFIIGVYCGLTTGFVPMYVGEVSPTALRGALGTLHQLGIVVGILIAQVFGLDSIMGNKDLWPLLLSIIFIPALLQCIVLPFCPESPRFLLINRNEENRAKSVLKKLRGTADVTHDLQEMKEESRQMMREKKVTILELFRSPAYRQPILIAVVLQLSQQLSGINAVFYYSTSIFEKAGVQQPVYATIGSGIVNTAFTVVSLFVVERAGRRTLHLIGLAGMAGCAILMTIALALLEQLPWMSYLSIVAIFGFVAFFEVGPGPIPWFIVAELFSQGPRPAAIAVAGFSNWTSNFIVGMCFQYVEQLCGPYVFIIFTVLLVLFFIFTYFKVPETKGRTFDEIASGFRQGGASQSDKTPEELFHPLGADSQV
Protocol: Next, the binding affinity of RgA for GLUT1 was determined using a RgA biotin pull-down assay. A biotin-RgA conjugate was synthesized by tethering the biotin moiety through carbon:carbon double bond in the FKBP-binding domain of RgA (FIG. 13). […] Using the biotin-RgA conjugate, a pulldown experiment with cell lysate containing detergent-solubilized GLUT1 protein prepared from HEK293T cells overexpressing GLUT1 was performed, followed by Western blot analysis with a GLUT1-specific antibody.
The estimation of Kd value for RgA was determined with the biotin probe competition binding assay. […] After western blot, band intensities were quantified by densitometry analysis using Image J software. The assay was repeated three times. GraphPad Prism (v4.03) software was used to determine apparent Kd value for RgA using a nonlinear regression.

AMPK and mTOR activity = assay: Western blot of AMPK and mTOR (S6K) activity in MCF-7 cells; assay type: cell-based, human; conditions: MCF-7, time- and dose-dependent
Excerpt: The increase in AMP/ATP ratio, in turn, is expected to activate AMPK, leading to the inhibition of the mTOR signaling pathway. Liu et al., Mol. Cancer Ther. 2012, 11, 1672-1682; Head et al., ACS Chem. Biol. 2017, 12, 174-182. The effect of RgA on AMPK and mTOR activity in MCF-7 cells was therefore determined.
(§3) For western blot analysis, cells were harvested and lysed by RIPA buffer plus protease inhibitor. Cell lysates or samples from pull-down experiment were subjected to SDS/PAGE and then transferred to a nitrocellulose membrane. Membranes were first blocked in 5% (wt/vol) BSA in Tris-buffered saline plus 0.1% Tween 20 (TBST) at room temperature for 30 min and incubated with primary antibodies at 4° C. for overnight. Membranes were then washed three times with TBST and incubated with secondary antibodies at room temperature for another 1 h. Membranes were washed with TBST three times again and incubated with ECL substrate for 1 min at room temperature. Pictures were captured using a GeneSys Image Station.

MCF-7 cells = assay: cell cycle analysis of MCF-7 cells; assay type: cell-based, human; conditions: MCF-7, 5 μM, 24 h
Protocol: as §1
MCF-7 cells were seeded at 5×10^5 cells/15 cm dish, allowed to recover overnight and subsequently treated with drugs or vehicle control for 24 h. Media was then collected and set aside. Cells were washed with PBS, trypsinized, combined with set aside media, pelleted at 500×g and then washed with 10 mL PBS followed by another 500×g spin. The pellet was resuspended in 0.5 mL PBS and added dropwise using a Pasteur pipette to 2 mL 75% ethanol in a 5 mL polystyrene tube being slowly agitated by a vortex. The cells were stored at 4° C. until staining. To do so, cells were pelleted at 500×g, resuspended in 5 mL PBS, rested for 60 seconds, pelleted again and washed by 5 mL PBS. The cell pellet was then resuspended in 0.5 mL staining solution (0.1% Triton-X-100, 0.2 mg/mL DNase free RNase A, and 0.02 mg/mL propidium iodide). Cells were allowed to stain for 30 min prior for analysis. Propidium iodide incorporation was measured using a FACSCalibur. The percentage of cells in each cell cycle stage was determined with FlowJo (v7.5.5) using a Watson analysis.

PARP and caspase 7 = assay: Western blot of apoptosis markers in MCF-7 cells; assay type: cell-based, human; conditions: MCF-7, 5 μM, 72 h; inhibited by Z-VAD
Protocol: as §1, §3

Sequence of FKBP12 (P62942 whole entry, species assumed): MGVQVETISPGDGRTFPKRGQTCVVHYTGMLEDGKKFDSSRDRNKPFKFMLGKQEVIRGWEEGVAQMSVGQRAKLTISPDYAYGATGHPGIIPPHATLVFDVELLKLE
Sequence of FKBP51 (Q13451 whole entry): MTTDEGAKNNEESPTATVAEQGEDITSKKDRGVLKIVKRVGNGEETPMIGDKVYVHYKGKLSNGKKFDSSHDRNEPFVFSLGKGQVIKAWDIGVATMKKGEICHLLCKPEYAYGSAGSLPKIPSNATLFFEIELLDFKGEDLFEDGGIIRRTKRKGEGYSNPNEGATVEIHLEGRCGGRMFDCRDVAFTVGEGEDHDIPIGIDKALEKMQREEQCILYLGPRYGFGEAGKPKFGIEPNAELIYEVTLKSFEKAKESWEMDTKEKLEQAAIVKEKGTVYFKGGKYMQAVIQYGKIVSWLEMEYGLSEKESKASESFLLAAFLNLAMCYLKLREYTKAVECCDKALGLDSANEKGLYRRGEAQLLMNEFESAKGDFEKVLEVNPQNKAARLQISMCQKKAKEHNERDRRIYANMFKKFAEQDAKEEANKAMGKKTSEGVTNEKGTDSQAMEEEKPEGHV
Sequence of FKSP13 (P26885 22-142): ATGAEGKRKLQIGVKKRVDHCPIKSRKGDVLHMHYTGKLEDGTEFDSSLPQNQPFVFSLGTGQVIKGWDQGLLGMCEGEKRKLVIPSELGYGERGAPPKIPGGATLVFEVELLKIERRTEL

- IC50 (MCF-7): 87.3 nM
- IC50 (Jurkat T): 132 nM
- Ki (FKBP12): 1.5 nM
- Ki (FKSP13): 539 ± 207 nM
- Ki (FKBP51): 46 ± 10 nM
- Kd (GLUT1): 78 nM
SMILES: CCC(C)C1C(=O)NCC(=O)N(C)CCC=CC(=O)OCC(C)(C)C(=O)C(=O)N2CCCCC2C(=O)OC(CCc2ccc(OC)c(OC)c2)c2cccc(c2)NC(=O)CCC(=O)N(C)C(CC(C)C)C(=O)NC(Cc2ccccc2)C(=O)N1C (stereo not drawn) [JW11-D2, Rapaglutin A]
- AMPK activity (AMPK and mTOR activity): activated AMPK
- mTOR activity (AMPK and mTOR activity): inhibited mTOR activity
- decrease in cells in G2/M phase (MCF-7 cells): ~17%
- decrease in cells in S phase (MCF-7 cells): approximately 7%
- increase in G1 phase in comparison to control (MCF-7 cells): approximately 23%
- PARP and caspase 7 cleavage (apoptosis) (PARP and caspase 7): resulted in poly(ADP-ribose) polymerase (PARP) and caspase 7 cleavage
